Source: paper PMC8248323 (Clinical Pharmacology in Drug Development, 2021)
Marks after values point to notes of the source that are not given here.

Experiment: Phase 1 DDI study 004 part B: midazolam
Details: for effect of lemborexant coadministration on exposure: coadministration with lemborexant 10 mg; for AUC: human, plasma, Geometric LSM
[1] = coadministration of lemborexant with bupropion
[2] = with lemborexant / without lemborexant

SMILES	AUC0‐t metabolite/parent ratio (bupropion with lemborexant) [%]	AUC0‐t metabolite/parent ratio (bupropion without lemborexant) [%]	decrease in AUC0‐t [1] [%]	decrease in Cmax [1] [%]	Cmax, Geometric LSM (midazolam 2 mg + bupropion 75 mg + lemborexant 10 mg daily)	AUC0‐t, Geometric LSM (midazolam 2 mg + bupropion 75 mg + lemborexant 10 mg daily (n = 28))	AUC0‐t, Geometric LSM (midazolam 2 mg + bupropion 75 mg single dose, without lemborexant (n = 27)) [ng·h/mL]	Cmax, Geometric LSM (midazolam 2 mg + bupropion 75 mg, without lemborexant) [ng/mL]	AUC0‐t, Geometric Mean Ratio (90%CI) [2]	Cmax, Geometric Mean Ratio (90%CI) [2]	effect of lemborexant coadministration on exposure	effect of lemborexant coadministration on exposure (listed as midazolam)	AUC (AUC0‐inf, midazolam 2 mg + bupropion 75 mg + lemborexant 10 mg daily) [ng·h/mL]	AUC (AUC0‐inf, midazolam 2 mg + bupropion 75 mg, without lemborexant) [ng·h/mL]	AUC (AUC0‐t, midazolam 2 mg + bupropion 75 mg + lemborexant 10 mg daily (n = 28)) [ng·h/mL]	AUC (AUC0‐t, midazolam 2 mg + bupropion 75 mg single dose, without lemborexant (n = 27)) [ng·h/mL]	AUC0‐inf, Geometric Mean Ratio (90%CI) [2]
C[C@@H]1NC(C)(C)CO[C@@]1(O)c1cccc(Cl)c1 [[S,S]‐hydroxylated bupropion]	124	88.7	24.5	17	6.57 ^c ng/mL	53.2 ^c ng·h/mL	70.5	7.93	0.755 (0.661–0.862)	0.829 (0.759–0.905)	–	–	–	–	–	–	–
Cc1ncc2n1-c1ccc(Cl)cc1C(c1ccccc1F)=NC2 [Midazolam]	–	–	–	–	–	–	–	–	1.133 (1.025–1.253)	1.126 (1.026–1.236)	not affected	did not have an effect	24.1	21.4	22.9	20.2	1.130 (1.023–1.247)
